Assay results taken from patent publication US5053329A, “Process for preparation of novel angiotensin II antagonists” (Merck & Co., Inc., priority 1991, dated 1991).

Target: T1, angiotensin II receptor (rabbit aortae membrane preparation) (Oryctolagus cuniculus, UniProt P34976)
T1 sequence (P34976 1-359): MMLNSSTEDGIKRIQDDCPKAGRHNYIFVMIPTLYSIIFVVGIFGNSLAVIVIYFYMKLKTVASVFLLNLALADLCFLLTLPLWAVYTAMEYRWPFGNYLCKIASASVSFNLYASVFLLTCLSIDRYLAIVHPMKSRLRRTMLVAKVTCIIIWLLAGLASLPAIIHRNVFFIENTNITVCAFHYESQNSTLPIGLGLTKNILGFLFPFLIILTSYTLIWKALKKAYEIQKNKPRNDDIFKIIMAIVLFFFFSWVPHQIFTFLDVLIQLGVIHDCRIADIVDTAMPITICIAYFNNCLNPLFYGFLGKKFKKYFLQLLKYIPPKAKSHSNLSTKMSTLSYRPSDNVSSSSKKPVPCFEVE
Test: Receptor binding assay using rabbit aortae membrane preparation (displacement of 125I-Sar1 Ile8-angiotensin II)
Conditions: result in words
Protocol: This assay is also referred to herein as the "IC50 " assay.
RECEPTOR BINDING ASSAY USING RABBIT AORTAE MEMBRANE PREPARATION
Three frozen rabbit aortae (obtained from Pel-Freeze Biologicals) were suspended in 5 mM Tris-0.25M Sucrose, pH 7.4 buffer (50 ml) homogenized, and then centrifuged. The mixture was filtered through a cheesecloth and the supernatant was centrifuged for 30 minutes at 20,000 rpm at 4° C. The pellet thus obtained was resuspended in 30 ml of 50 mM Tris-5 mM MgCl2 buffer containing 0.2% Bovine Serum Albumin and 0.2 mg/ml Bacitration and the suspension was used for 100 assay tubes. Samples tested for screening were done in duplicate. To the membrane preparation (0.25 ml) there was added ^125 I-Sar^1 Ile^8 -angiotensin II [obtained from New England Nuclear] (10 ul; 20,000 cpm) with or without the test sample and the mixture was incubated at 37° C. for 90 minutes. The mixture was then diluted with ice-cold 50 mM Tris-0.9% NaCl, pH 7.4 (4 ml) and filtered through a glass fiber filter (GF/B Whatman 2.4" diameter). The filter was soaked in scintillation cocktail (10 ml) and counted for radioactivity using Packard 2660 Tricarb liquid scintillation counter. […]

Compound | A II antagonist activity by the IC50 assay
CCCc1nc2c(C)c(O)cnc2n1Cc1ccc(-c2ccccc2-c2nnn[nH]2)cc1 [6-HO-oxidation product] | exhibit A II antagonist activity
CCCc1nc2c(CO)ccnc2n1Cc1ccc(-c2ccccc2-c2nnn[nH]2)cc1 [7-HOCH2 - oxidation product] | exhibit A II antagonist activity
